PMC11325505, “Nitrogen-Containing Flavonoids—Preparation and Biological Activity” (ACS Omega, 2024)
In brackets after ≈: the same amount, converted by molar mass. Several values for one entry are separate records, joined by “and”; a condition that tells them apart may be missing. Identical values can stand only once. Like-named read-outs stand apart in the source and are kept apart here.

Key:
S. aureus CCM 4223 = assay: Antibacterial activity, antibiotic-sensitive strain; assay type: cell-based; conditions: Staphylococcus aureus, CCM4223, three repetitions ± SEM
S. aureus MRSA 9 = assay: Antibacterial activity, multidrug-resistant strain; assay type: cell-based; conditions: Staphylococcus aureus, MRSA; multidrug-resistant strain; three repetitions ± SEM
Description: (§1) To evaluate the ability to modulate bacterial resistance, the tested flavonoids themselves cannot exert antimicrobial activity; therefore, the nontoxic concentration was used, as indicated in Table S5. Clinically relevant antibiotics were selected at breakpoint concentrations for susceptibility testing according to the European Committee on Antimicrobial Susceptibility Testing (EUCAST, version 11.0). […] Flavonoids and their derivatives (from 1 μM to the highest nontoxic concentration) were used in combination with the breakpoint concentration of the antibiotics. After coincubation, the minimum inhibitory concentration (MIC) of flavonoids inhibiting the visible growth of bacteria was determined (Table 2).
(§2) Sensitization of multidrug-resistant clinical bacterial strains was performed according to ref[15]. Antibiotic cutoff concentration was chosen according to the European Committee on Antimicrobial Susceptibility Testing (EUCAST, Clinical breakpoints–bacteria, ver. 11.0). The 200 μM concentration of the derivatives was chosen as the highest test concentration. The absorbance detected at 600 nm was then used to estimate the number of viable cells after 24 h of incubation at 37 °C and 120 rpm.
(§3) Experiments were performed with the respective number of replicates indicated in each figure/table. MIC was determined as IC70. Both IC70 and IC50 values were calculated using the following nonlinear regression in the software GraphPad Prism: […]

RAW 264.7 cells = assay: Cellular antioxidant activity (CAA); assay type: cell-based, Murine; conditions: for IC50: average of four repetitions ± standard error of the mean; for change of antioxidant activity compared to the parent compound, in words: CAA in macrophages
Description: To evaluate the antioxidant activity of the prepared derivatives and the respective parent compounds, cellular antioxidant activity (CAA) was measured in macrophages. Compared to other in vitro antioxidant assays, this method provides partial information about the uptake and metabolism of the compounds, because, in this assay, they must first enter the cell to exert antioxidant activity.[31] […] Derivatization of quercetin at C-8 with 4-fluoroaniline (5) increased the antioxidant activity of quercetin by 1.7-fold. […] The concentration of these derivatives required to halve the cellular radicals decreased 1.5-fold compared to luteolin.
Cellular antioxidant capacity was evaluated as previously described.[31],[39] Briefly, 100 μL of RAW 264.7 cells with a density corresponding to 1 × 10^6 cells/mL were split into 96-well plates. After 24 h, cells were washed with PBS, and DMEM supplemented with DCFH-DA (0.0125 mg/mL) was added to each well together with the tested samples in the concentration range of 1.5–200 μM. After 1 h incubation in a CO2 incubator, the medium was replaced with AAPH solution (0.16 mg/mL in PBS), and fluorescence was immediately recorded (ex./em. 485/540 nm) for 2 h in 5 min intervals.

[1] = tested on: human dermal fibroblasts (HDF); assay: Cytotoxicity (resazurin assay), fibroblasts; assay type: cell-based; conditions: Homo sapiens, Fibroblast, 72 h, read-out: HDF IC50 (concentration that halved the viability)
Description: The cytotoxicity of the prepared derivatives was evaluated by their ability to decrease the viability of immortalized human keratinocytes (HaCaT) and human dermal fibroblasts (HDF).
100 μL of cell suspension containing 10^5 cells/mL was pipetted into a 96-well plate. After 24 h incubation, the tested compounds were added in the concentration range 12.5–200 μM. After 72 h incubation, the cell viability was tested by standard resazurin assay.[41] Briefly, the cells were washed with PBS and incubated with 100 μL of resazurin solution (0.025 mg/mL) for 2 h. The fluorescence was measured at a wavelength of 560 nm excitation/590 nm emission.

[2] = tested on: Methicilin-Resistant S. aureus 331 Strain; assay: Mode of antimicrobial action with erythromycin, ermC-positive strain; assay type: cell-based; conditions: for MIC, erythromycin [1 mg/L] yes / MIC, erythromycin [1 mg/L] no: MRSA 331 (ermC); for MIC, erythromycin [1 mg/L] yes: with erythromycin 1 mg/L; for MIC, erythromycin [1 mg/L] no: without erythromycin; for FIC (Fractional Inhibitory Concentration Index): with erythromycin
Text: (§4) Erythromycin is a macrolide antibiotic that inhibits proteosynthesis by binding to the 50S subunit of the ribosome. In Staphylococcus species, resistance to erythromycin is associated with the presence of methyltransferases (encoded by erm genes) that alter the ribosomal target site. Another typical mechanism of resistance to erythromycin is the presence of an ATP-dependent efflux pump encoded by the msr(A) gene or a major facilitator superfamily (MFS) pump encoded by the lmrS gene. Both efflux pumps reduce the concentration of erythromycin in the cell below the therapeutic dose by transporting it across the membrane to the extracellular space. Another erythromycin resistance gene is the mph(C) gene, the product of which is a phosphotransferase that alters the structure of macrolide antibiotics. To elucidate the mechanism of erythromycin resistance modulation in S. aureus, further tests were performed with the strains MRSA 331 and MRSA 3596, which inactivate erythromycin via a single mechanism (ermC and ermA, respectively). […] Therefore, if the activity was not strain-specific, it would be necessary to consider the effect of the derivatives on this pump (Table 3).
as §2, §3

[3] = tested on: Staphylococcus aureus MRSA 9; assay: Modulation of antibiotic-resistant phenotype (flavonoid plus breakpoint concentration of antibiotic); assay type: cell-based; conditions: for minimum inhibitory concentration (MIC) in the presence of erythromycin: erythromycin at breakpoint concentration 1 mg/L; for minimum inhibitory concentration (MIC) in the presence of erythromycin / minimum inhibitory concentration (MIC) in the presence of gentamicin: MIC determined as IC70, three repetitions ± SEM; for minimum inhibitory concentration (MIC) in the presence of gentamicin: gentamicin at breakpoint concentration 1 mg/L
Description: as §1, §2, §3

MRSA 3596 = assay: Mode of antimicrobial action with erythromycin or gentamicin, ermA- and aadD-positive strain; assay type: cell-based, S. aureus; conditions: for effect (mode of action with erythromycin) / effect (mode of action with gentamicin) / FIC (Fractional Inhibitory Concentration Index): MRSA 3596; for MIC, Gentamicin [1 mg/L] yes / MIC: MRSA 3596 (aadD); for MIC, Gentamicin [1 mg/L] yes: with gentamicin 1 mg/L; for MIC, erythromycin [1 mg/L] yes / MIC, erythromycin [1 mg/L] no: MRSA 3596 (ermA); for MIC, erythromycin [1 mg/L] yes: with erythromycin 1 mg/L; for MIC, erythromycin [1 mg/L] no: without erythromycin, Table 4; for MIC: Staphylococcus aureus, 24 h, read-out: MIC, Gentamicin [1 mg/L] no, without gentamicin, Table S6
Text: as §4
Among the mechanisms of resistance to gentamicin previously described in S. aureus, the presence of enzymes that alter the structure of aminoglycosides is crucial. These enzymes can transfer nucleotides, phosphates, or acetyls to various −OH or −NH2 groups of gentamicin, preventing its subsequent interaction with the cellular target, i.e., the 30S ribosomal subunit. The bifunctional aminoglycoside-modifying enzyme with acetylation and phosphotransferase activities encoded by the gene aac(6’)/aph(2’), 4′,4″ adenyltransferase encoded by the aadD gene, and aminoglycoside O-phosphotransferase encoded by the gene aph(3′) are the most important.[37] […] For this reason, further testing continued using strains MRSA 3596 and MRSA 1584, which inactivate gentamicin only by a single mechanism (aadD and aac(6’)-aph(2’’), respectively).
as §2, §3

[4] = Mus musculus, RAW264.7, macrophages RAW 264.7
[5] = 72 h incubation, resazurin, average of three repetitions ± SEM

| SMILES | IC50 (S. aureus CCM 4223) | IC50 (S. aureus MRSA 9) | IC50 (RAW 264.7 cells; [4]) | IC50 (RAW 264.7 cells; macrophages RAW 264.7) | IC50 [1] | MIC, erythromycin [1 mg/L] yes [2] | MIC, erythromycin [1 mg/L] no [2] | FIC (Fractional Inhibitory Concentration Index) ([2]; MRSA 331) | minimum inhibitory concentration (MIC) in the presence of erythromycin [3] | minimum inhibitory concentration (MIC) in the presence of gentamicin [3] | effect (mode of action with erythromycin) (MRSA 3596) | effect (mode of action with gentamicin) (MRSA 3596) | MIC, Gentamicin [1 mg/L] yes (MRSA 3596) | MIC, erythromycin [1 mg/L] yes (MRSA 3596) | MIC, erythromycin [1 mg/L] no (MRSA 3596) | FIC (Fractional Inhibitory Concentration Index) (MRSA 3596; with erythromycin) | FIC (Fractional Inhibitory Concentration Index) (MRSA 3596; with gentamicin) | MIC (MRSA 3596) | IC50 [1, 5] | change of antioxidant activity compared to the parent compound, in words (RAW 264.7 cells) | other results |
| --- | --- | --- | --- | --- | --- | --- | --- | --- | --- | --- | --- | --- | --- | --- | --- | --- | --- | --- | --- | --- | --- |
| O=c1c(O)c(-c2ccc(O)c(O)c2)oc2cc(O)cc(O)c12 [compound 4, quercetin, reference compound] | > 200 µM | > 200 µM | 5.9 ± 0.4 µM | 5.85 µM | 80 ± 1.5 µM | 190.9 ± 0.5 µM (≈ 57.7 µg/mL) | 193.1 ± 1.0 µM (≈ 58.4 µg/mL) | 0.99 ± 0.01 | 117.3 ± 4.7 µM | >200 ^note 1 μM | synergy (Fractional Inhibitory Concentration Index (FIC) < 0.5 indicates synergism) | synergy (Fractional Inhibitory Concentration Index (FIC) < 0.5 indicates synergism) | 54.5 ± 0.6 µM (≈ 16.5 µg/mL) | 58.6 ± 1.2 µM (≈ 17.7 µg/mL) | 178.1 ± 2.7 µM (≈ 53.8 µg/mL) | 0.33 ± 0.01 | 0.31 ± 0.01 | 178 ± 2.7 µM (≈ 53.8 µg/mL) | – | – | inhibition at 200 µM ([3]; Staphylococcus aureus, MRSA, with gentamicin 1 mg/L, maximum concentration used (200 μM), read-out: maximum concentration used inhibited bacterial growth to): 57%; effect (mode of action with erythromycin) (MRSA 3596; listed as quercetin): synergistic activity |
| O=c1c(O)c(-c2ccc(O)c(O)c2)oc2c(Nc3ccc(F)cc3)c(O)cc(O)c12 [compound 5, 2-(3,4-Dihydroxyphenyl)-8-(4-fluoroanilino)-3,5,7-trihydroxy-4H–1-benzopyran-4-one] | 28 ± 0.1 µM | 60.7 ± 2.4 µM | 3.4 ± 0.2 µM | – | – | – | – | – | >200 µM | 45.2 ± 0.6 µM | – | – | > 200 µM | – | – | – | – | > 200 µM | 95.9 ± 6.1 µM | – | – |
| O=c1c(O)c(-c2ccc(O)c(O)c2)oc2c(Nc3ccc(C(F)(F)F)cc3)c(O)cc(O)c12 [compound 8, 2-(3,4-Dihydroxyphenyl)-8-(4-(trifluoromethyl)anilino)-3,5,7-trihydroxy-4H–1-benzopyran-4-one] | 39.3 ± 1.8 µM | 35.3 ± 0.7 µM | 11.5 ± 0.3 µM | – | 111.9 ± 0.5 µM | 15.9 ± 0.8 µM (≈ 7.34 µg/mL) | 6.9 ± 0.2 µM (≈ 3.18 µg/mL) | – | >25 ^note 3 μM | 8.1 µM and 8.1 ± 0.6 µM | synergy (Fractional Inhibitory Concentration Index (FIC) < 0.5 indicates synergism) | synergy (Fractional Inhibitory Concentration Index (FIC) < 0.5 indicates synergism) | 5.7 ± 0.1 µM (≈ 2.63 µg/mL) | 8.4 ± 1.1 µM (≈ 3.88 µg/mL) | 37.9 ± 0.1 µM (≈ 17.5 µg/mL) | – | – | 37.9 ± 0.1 µM (≈ 17.5 µg/mL) | – | significantly decreased the antioxidant activity | effect (mode of action with erythromycin) ([2]; MRSA 331): antagonism (≥2 indicates antagonism) |
| O=c1cc(-c2ccc(O)c(O)c2)oc2cc(O)cc(O)c12 [compound 10, luteolin, reference compound] | > 200 µM | > 200 µM | 4.5 ± 0.5 µM | 4.48 µM | 42.9 ± 3.4 µM | 31.6 ± 2.5 µM (≈ 9.05 µg/mL) | 28.1 ± 0.3 µM (≈ 8.04 µg/mL) | 1.12 ± 0.10 | 147.3 ± 7.7 µM | 84.7 ± 1.8 µM | synergy (Fractional Inhibitory Concentration Index (FIC) < 0.5 indicates synergism) | synergy (Fractional Inhibitory Concentration Index (FIC) < 0.5 indicates synergism) | 6.7 ± 0.1 µM (≈ 1.92 µg/mL) | 14.3 ± 0.9 µM (≈ 4.09 µg/mL) | 51.1 ± 1.3 µM (≈ 14.6 µg/mL) | 0.28 ± 0.02 | 0.13 ± 0.01 | 51.1 ± 1.3 µM (≈ 14.6 µg/mL) | – | – | effect (mode of action with erythromycin) (MRSA 3596; listed as luteolin): synergistic activity |
| O=c1cc(-c2ccc(O)c(O)c2)oc2c(Nc3ccccc3)c(O)cc(O)c12 [compound 13, 2-(3,4-Dihydroxyphenyl)-8-(anilino)-5,7-dihydroxy-4H–1-benzopyran-4-one] | 50 ± 1.2 µM | 51.3 ± 1.3 µM | 3.1 ± 0.1 µM | – | – | – | – | – | >200 µM | 24.7 ± 0.8 µM | – | synergy (Fractional Inhibitory Concentration Index (FIC) < 0.5 indicates synergism) | 23.2 ± 0.4 µM (≈ 8.75 µg/mL) | – | – | – | 0.25 ± 0.01 | 93 ± 0.6 µM (≈ 35.1 µg/mL) | 58.3 ± 2.7 µM | – | – |
| O=c1cc(-c2ccc(O)c(O)c2)oc2c(Nc3cccc(F)c3)c(O)cc(O)c12 [compound 15, 2-(3,4-Dihydroxyphenyl)-8-(3-fluoroanilino)-5,7-dihydroxy-4H–1-benzopyran-4-one] | 28 ± 2.2 µM | 56.9 ± 1.9 µM | 6.7 ± 0.2 µM | – | – | – | – | – | >200 µM | 12.4 ± 0.3 µM | – | synergy (Fractional Inhibitory Concentration Index (FIC) < 0.5 indicates synergism) | 5.3 ± 0.1 µM (≈ 2.1 µg/mL) | – | – | – | 0.21 ± 0.1 | 25.7 ± 0.4 µM (≈ 10.2 µg/mL) | 30.9 ± 2.1 µM | significantly decreased the antioxidant activity | – |
